# Molecular target: T1, KDM5B enzyme (Homo sapiens, UniProt Q9UGL1)
# T1 construct: Reaction Biology Corp (named for the assay, not expressly for the enzyme)
# Assay: KDM5B HTRF (TR-FRET) demethylase inhibition assay
# Format: biochemical
# Conditions: 1.2 nM KDM5B, 30 nM Biotin-H3K4Me3 1-21 substrate, 10 point dose-response
# Method: Ten point dose-response curves for the compounds of Examples 1-135 were determined using a homogeneous time resolved fluorescence (HTRF) assay (Reaction Biology Corp, Malvern, Pa.). This assay combines fluorescence resonance energy transfer (FRET) with time resolve (TR) measurements (TR-FRET). The KDM5B α-ketoglutarate-dependent demethylase activity is calculated by measuring demethylation of a biotin labeled histone tri-methylated H3K4 substrate using an europium-cryptate (Eu)-labeled antibody donor specific for dimethylated histone H3K4 and a Streptavidin-XL665 acceptor that binds to the biotin group of substrate, and detecting FRET by exciting the reaction mixture at 320 nm and reading dual emissions at 615 nm and 665 nm.
# Briefly, compounds disclosed herein were solubilized in DMSO and a series of 10, three-fold serial dilutions were made for each compound in 100% DMSO. The initial starting concentration for the serial dilutions of each compound was 10 μM or 100 μM. Control samples lacking compound, KDM5B enzyme or various reaction components also were prepared and processed in parallel with compound test samples.
# An aliquot of each serial dilution of test compound was added to a 384 well plate (Corning Cat #3572) containing 1.2 nM KDM5B enzyme suspended in 50 mM Hepes, pH7.5, 50 mM NaCl, 0.01% Tween 20, 0.1% BSA, and 1% DMSO (final concentrations) in a 10 microliter reaction volume using a LABCYTE ECHO liquid handler. The samples were mixed, subjected to centrifugation and the plate was pre-incubated at room temperature for 15 minutes (min), to which 30 nM Biotin-H3K4Me3 1-21 substrate (Anaspec, Freemont Calif., Cat #64192), 20 μM Fe(II) and 20 μM α-ketoglutarate co-factors, and 100 μM Ascorbate were added to initiate the enzymatic reaction. The reaction mixture was incubated at room temperature for 45 minutes. A 10 μl aliquot of a detection mixture of Eu-labeled anti-histone H3K4Me2 antibody (CisBIO, Bedford Mass., Cat #610AXLB) and Streptavidin-XL665 (CisBIO, Bedford Mass., Cat #610 SAXLB) in 200 mM potassium fluoride and 10 mM EDTA was added and kinetic measurements were read at 5 minute intervals for a period of 30 minutes using an Envision Multiplate Reader (PerkinElmer Model 2102; excitation at 320 nm and emission reads at 615 nm and 665 nm). The IC50 value for each compound was determined from the 665/615 ratio obtained for each 10 point dose-response curve using GraphPad Prism 4 software with a sigmodial dose response.
# T1 sequence (Q9UGL1 whole entry): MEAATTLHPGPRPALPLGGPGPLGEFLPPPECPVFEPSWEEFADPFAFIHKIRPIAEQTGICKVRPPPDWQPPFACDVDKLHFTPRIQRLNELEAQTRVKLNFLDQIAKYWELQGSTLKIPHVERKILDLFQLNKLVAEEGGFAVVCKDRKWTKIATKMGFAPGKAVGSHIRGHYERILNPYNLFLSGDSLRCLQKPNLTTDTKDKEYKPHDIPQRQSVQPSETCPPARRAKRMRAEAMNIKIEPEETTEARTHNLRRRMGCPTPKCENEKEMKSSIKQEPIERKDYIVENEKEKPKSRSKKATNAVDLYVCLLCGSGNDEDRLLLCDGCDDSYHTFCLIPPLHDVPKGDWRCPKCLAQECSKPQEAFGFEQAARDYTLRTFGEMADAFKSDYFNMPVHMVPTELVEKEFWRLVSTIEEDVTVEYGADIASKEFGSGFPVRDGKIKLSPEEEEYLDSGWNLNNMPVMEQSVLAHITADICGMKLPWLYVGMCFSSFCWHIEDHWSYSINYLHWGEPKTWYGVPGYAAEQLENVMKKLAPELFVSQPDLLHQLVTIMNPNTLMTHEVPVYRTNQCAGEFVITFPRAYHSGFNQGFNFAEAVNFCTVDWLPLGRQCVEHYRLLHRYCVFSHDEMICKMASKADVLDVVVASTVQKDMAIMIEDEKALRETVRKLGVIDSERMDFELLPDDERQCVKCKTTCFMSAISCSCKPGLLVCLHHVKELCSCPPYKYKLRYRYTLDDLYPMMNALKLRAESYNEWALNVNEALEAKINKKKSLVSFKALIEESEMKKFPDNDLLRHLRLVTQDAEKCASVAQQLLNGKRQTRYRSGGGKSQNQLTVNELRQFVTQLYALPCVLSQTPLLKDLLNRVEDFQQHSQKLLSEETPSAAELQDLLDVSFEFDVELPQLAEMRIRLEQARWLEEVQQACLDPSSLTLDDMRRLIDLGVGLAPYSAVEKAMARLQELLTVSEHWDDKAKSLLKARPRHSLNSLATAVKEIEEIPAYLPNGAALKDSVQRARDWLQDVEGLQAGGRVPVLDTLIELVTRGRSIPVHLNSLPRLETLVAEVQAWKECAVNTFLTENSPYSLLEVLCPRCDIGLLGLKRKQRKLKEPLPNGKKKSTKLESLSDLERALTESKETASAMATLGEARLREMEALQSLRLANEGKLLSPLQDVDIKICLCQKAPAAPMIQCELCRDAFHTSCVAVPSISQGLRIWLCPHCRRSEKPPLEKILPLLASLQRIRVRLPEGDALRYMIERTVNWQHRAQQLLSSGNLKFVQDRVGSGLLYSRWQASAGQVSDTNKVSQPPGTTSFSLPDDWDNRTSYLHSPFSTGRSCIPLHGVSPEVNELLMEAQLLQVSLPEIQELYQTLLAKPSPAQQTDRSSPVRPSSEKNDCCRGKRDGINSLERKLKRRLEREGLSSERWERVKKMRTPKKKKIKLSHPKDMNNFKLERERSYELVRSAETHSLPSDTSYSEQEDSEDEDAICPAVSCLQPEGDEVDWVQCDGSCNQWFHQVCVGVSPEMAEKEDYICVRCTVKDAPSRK
row,Structure (SMILES),IC50 [nM]
1,CCOc1ccccc1CNc1ccc2nccn2c1C(=O)O [Example 40],> 1000
2,COc1ccccc1Oc1cc(C(=O)O)n2ccnc2c1 [Example 108],> 1000
3,O=C(O)c1c(NCc2ccc(C(F)(F)F)c(F)c2)ccc2nccn12 [Example 48],> 1000
4,O=C(O)c1c(NCc2cc(Cl)c(F)cc2F)ccc2nccn12 [Example 99],> 1000
5,O=C(O)c1c(NCc2cc(Cl)ccc2F)ccc2nccn12 [Example 66],> 1000
6,O=C(O)c1c(NCc2cccc3ccccc23)ccc2nccn12 [Example 31],> 1000
7,Cc1ccc(C(F)(F)F)c(CNc2ccc3nccn3c2C(=O)O)c1 [Example 69],> 1000
8,COc1cc(Cl)ccc1COc1cc(C(=O)O)n2ccnc2c1 [Example 123],> 1000
9,COc1cc(Cl)ccc1CNc1ccc2nccn2c1C#N [Example 110],> 1000
10,COc1cc(Cl)ccc1CNc1ccc2nc(C)cn2c1C(=O)O [Example 119],> 1000
11,O=C(O)c1cnc2cc(C(O)c3ccccc3)ccn12 (stereo not drawn) [Example 102],> 1000
12,O=C(O)c1c(NCc2ccc(Cl)cc2)ccc2nccn12 [Example 74],> 1000
13,COc1ccc(Cl)cc1CNc1ccc2nc(C)cn2c1C(=O)O [Example 114],> 1000
14,O=C(O)c1c(NCc2cccc(Cl)c2Cl)ccc2nccn12 [Example 9],> 1000
15,Cc1ccc(CNc2ccc3nccn3c2C(=O)O)c(F)c1F [Example 33],> 1000
16,COc1ccc(-c2cccc(CNc3ccc4nccn4c3C(=O)O)c2)cc1 [Example 125],> 1000
17,COc1cc(C)ccc1-c1ccc2ncc(C(=O)O)n2c1 [Example 116],> 1000
18,O=C(O)c1c(NCc2cc(C(F)(F)F)cc(C(F)(F)F)c2)ccc2nccn12 [Example 6],> 1000
19,Cc1nc2cc(C(O)c3ccccc3)ccn2c1C(=O)O (stereo not drawn) [Example 101],> 1000
20,O=C(O)c1c(NCc2ccc(N3CCOCC3)cc2)ccc2nccn12 [Example 64],> 1000

row,Structure (SMILES),IC50 [nM]
1,O=C(O)c1c(NCc2ccccc2Cl)ccc2nccn12 [Example 91],> 1000
2,O=C(O)c1c(NCc2ccc3c(c2)CCO3)ccc2nccn12 [Example 98],> 1000
3,O=C(O)c1cnc2cc(Oc3ccc4ccncc4c3)ccn12 [Example 105],> 1000
4,O=C(O)c1c(NCc2cccc(C(F)(F)F)c2F)ccc2nccn12 [Example 16],> 1000
5,O=C(O)c1c(NCc2ccc(Oc3ccc(F)cc3)cc2)ccc2nccn12 [Example 54],> 1000
6,O=C(O)c1c(NCc2cc(C(F)(F)F)ccc2Cl)ccc2nccn12 [Example 5],> 1000
7,Cc1ccc(CNc2ccc3nccn3c2C(=O)O)cc1F [Example 49],> 1000
8,COc1cc(Cl)ccc1COc1ccc2nccn2c1C(=O)O [Example 120],> 1000
9,O=C(O)c1c(NCc2ccc(-c3cccs3)cc2)ccc2nccn12 [Example 53],> 1000
10,O=C(O)c1c(NCc2ccc(Cl)cc2F)ccc2nccn12 [Example 56],> 1000
11,O=C(O)c1c(NCc2cc(C(F)(F)F)ccc2F)ccc2nccn12 [Example 43],> 1000
12,O=C(O)c1c(NCc2ccc3sccc3c2)ccc2nccn12 [Example 30],> 1000
13,O=C(O)c1c(NCc2ccc(OC(F)F)cc2)ccc2nccn12 [Example 22],> 1000
14,O=C(O)c1c(NCc2ccc3c(c2)OCCO3)ccc2nccn12 [Example 80],> 1000
15,CN(C)Cc1ccccc1CNc1ccc2nccn2c1C(=O)O [Example 131],> 1000
16,Cc1c(F)cccc1CNc1ccc2nccn2c1C(=O)O [Example 20],> 1000
17,O=C(O)c1c(NCc2cc(F)cc(F)c2)ccc2nccn12 [Example 73],> 1000
18,O=C(O)c1c(NCc2ccccc2F)ccc2nccn12 [Example 85],> 1000
19,Cc1ccc(CNc2ccc3nccn3c2C(=O)O)c(F)c1 [Example 42],> 1000
20,O=C(O)c1c(NCc2ccc(Cl)c(F)c2)ccc2nccn12 [Example 58],> 1000

# More lines, now with the values ahead:
row,IC50 [nM],Structure (SMILES)
1,500 to 1000,COc1cc(CNc2ccc3nccn3c2C(=O)O)ccc1F [Example 97]
2,> 1000,CCN1CCN(c2ccc(CNc3ccc4nccn4c3C(=O)O)c3c2CCCC3)CC1 [Example 124]
3,≤ 500,N#Cc1ccc(CNc2ccc3nccn3c2C(=O)O)cc1 [Example 59]
4,> 1000,COc1cc(Cl)ccc1CNc1ccc2nccn2c1-c1nn[nH]n1 [Example 111]
5,> 1000,O=C(O)c1c(NCc2c(F)cccc2Cl)ccc2nccn12 [Example 39]
6,> 1000,O=C(O)c1c(NCc2cc(F)cc(C(F)(F)F)c2)ccc2nccn12 [Example 93]
7,> 1000,O=C(O)c1c(NCc2ccc(N3CCCCC3)cc2)ccc2nccn12 [Example 27]
8,≤ 500,O=C(O)c1cc(CCCN2CCC(c3cc(Cl)cc(Cl)c3)CC2)cc2nccn12 [Example 135]
9,500 to 1000,Cc1cc(Cl)ccc1CNc1ccc2nccn2c1C(=O)O [Example 57]
10,≤ 500,Cn1nccc1-c1cccc(CNc2ccc3nccn3c2C(=O)O)c1 [Example 127]
11,> 1000,COc1ccccc1CNc1ccc2nccn2c1C(=O)O [Example 17]
12,≤ 500,COc1cc(Cl)ccc1CNc1ccc2nccn2c1C(=O)O [Example 8]
13,> 1000,O=C(O)c1cnc2cc(Oc3ccccc3)ccn12 [Example 104]
14,> 1000,O=C(O)c1c(NCc2cc(Cl)cc(Cl)c2)ccc2nccn12 [Example 18]
15,> 1000,COc1ccc(Cl)cc1CNc1cc(C(=O)O)n2ccnc2c1 [Example 117]
16,500 to 1000,COc1c(F)cccc1CNc1ccc2nccn2c1C(=O)O [Example 92]

row,IC50 [nM],Structure (SMILES)
1,≤ 500,COc1ccc(CNc2ccc3nccn3c2C(=O)O)cc1O [Example 51]
2,500 to 1000,O=C(O)c1c(NCc2ccc(C(F)(F)F)cc2F)ccc2nccn12 [Example 41]
3,500 to 1000,O=C(O)c1c(NCc2cc(Cl)ccc2Cl)ccc2nccn12 [Example 34]
4,500 to 1000,O=C(O)c1c(NCc2c(F)cc(F)cc2F)ccc2nccn12 [Example 71]
5,500 to 1000,O=C(O)c1c(NCc2ccc3c(c2)OC(F)(F)O3)ccc2nccn12 [Example 77]
6,500 to 1000,O=C(O)c1c(NCc2ccc(Cl)cc2Cl)ccc2nccn12 [Example 72]
7,≤ 500,O=C(O)c1cc(-c2cn(Cc3ccc(Cl)cc3)cn2)cc2nccn12 [Example 113]
8,≤ 500,O=C(O)c1c(NCc2cc(F)ccc2C(F)(F)F)ccc2nccn12 [Example 67]
9,500 to 1000,O=C(O)c1c(NCc2ccc3occc3c2)ccc2nccn12 [Example 29]
10,500 to 1000,O=C(O)c1c(NCc2cc(F)ccc2F)ccc2nccn12 [Example 82]
11,500 to 1000,CC(=O)N(C)c1cccc(CNc2ccc3nccn3c2C(=O)O)c1 [Example 100]
12,500 to 1000,O=C(O)c1c(NCc2cccc(-c3cccnc3)c2)ccc2nccn12 [Example 126]
13,500 to 1000,COc1cc(CN2CCC(NCCc3ccccc3)CC2)ccc1CNc1ccc2nccn2c1C(=O)O [Example 130]
14,500 to 1000,Cc1cc(F)ccc1CNc1ccc2nccn2c1C(=O)O [Example 61]
15,500 to 1000,Cc1ccc(Cl)cc1CNc1ccc2nccn2c1C(=O)O [Example 26]
16,≤ 500,CS(=O)(=O)c1ccccc1CNc1ccc2nccn2c1C(=O)O [Example 84]
